Laboratory results from ChEMBL document CHEMBL1130492 (Bioorg Med Chem Lett, 1997).

Columns and labels:
Rattus norvegicus [1] = organism: Rattus norvegicus; assay: Percent of radioactive dose in urine and feces excreted in 0-24 hr by rats; type: ADME, organism-based; conditions: in vivo
[2] = target: T1, Adrenergic receptor alpha-1 (Rattus norvegicus, UniProt P15823+P23944+P43140); assay: In vitro ability to displace Alpha-1 adrenergic receptor binding to rat cerebral cortex in competition experiments against [3H]-prazosin, expressed as Ki.
T1 sequence (P15823 whole entry): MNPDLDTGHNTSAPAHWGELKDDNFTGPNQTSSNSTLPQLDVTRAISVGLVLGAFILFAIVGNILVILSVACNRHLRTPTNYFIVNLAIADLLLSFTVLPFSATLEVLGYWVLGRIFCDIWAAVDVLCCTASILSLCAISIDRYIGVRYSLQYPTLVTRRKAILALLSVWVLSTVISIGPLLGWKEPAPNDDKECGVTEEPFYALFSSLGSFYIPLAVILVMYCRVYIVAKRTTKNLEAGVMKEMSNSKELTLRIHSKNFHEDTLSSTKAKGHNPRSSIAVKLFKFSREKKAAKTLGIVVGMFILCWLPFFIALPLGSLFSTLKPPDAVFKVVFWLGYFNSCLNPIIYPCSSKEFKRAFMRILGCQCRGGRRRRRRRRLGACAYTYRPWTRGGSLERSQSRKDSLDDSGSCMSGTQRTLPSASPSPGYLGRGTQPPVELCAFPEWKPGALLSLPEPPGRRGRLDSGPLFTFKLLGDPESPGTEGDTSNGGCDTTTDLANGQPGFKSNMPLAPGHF
T1 sequence (P23944 whole entry): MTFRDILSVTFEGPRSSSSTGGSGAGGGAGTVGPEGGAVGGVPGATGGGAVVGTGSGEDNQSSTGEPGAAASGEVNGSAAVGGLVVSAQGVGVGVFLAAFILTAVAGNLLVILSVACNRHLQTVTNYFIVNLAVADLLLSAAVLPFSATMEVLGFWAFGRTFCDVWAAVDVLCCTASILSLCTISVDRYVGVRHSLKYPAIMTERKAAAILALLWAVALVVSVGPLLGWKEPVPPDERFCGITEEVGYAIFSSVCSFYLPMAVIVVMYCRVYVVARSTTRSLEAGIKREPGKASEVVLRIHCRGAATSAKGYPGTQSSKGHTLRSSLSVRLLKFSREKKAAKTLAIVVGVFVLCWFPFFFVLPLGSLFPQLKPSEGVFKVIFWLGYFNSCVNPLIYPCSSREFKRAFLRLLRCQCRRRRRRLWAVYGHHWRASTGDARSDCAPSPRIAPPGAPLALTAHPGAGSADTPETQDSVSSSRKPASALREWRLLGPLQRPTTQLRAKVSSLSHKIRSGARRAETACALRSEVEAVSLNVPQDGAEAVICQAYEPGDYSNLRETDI
T1 sequence (P43140 whole entry): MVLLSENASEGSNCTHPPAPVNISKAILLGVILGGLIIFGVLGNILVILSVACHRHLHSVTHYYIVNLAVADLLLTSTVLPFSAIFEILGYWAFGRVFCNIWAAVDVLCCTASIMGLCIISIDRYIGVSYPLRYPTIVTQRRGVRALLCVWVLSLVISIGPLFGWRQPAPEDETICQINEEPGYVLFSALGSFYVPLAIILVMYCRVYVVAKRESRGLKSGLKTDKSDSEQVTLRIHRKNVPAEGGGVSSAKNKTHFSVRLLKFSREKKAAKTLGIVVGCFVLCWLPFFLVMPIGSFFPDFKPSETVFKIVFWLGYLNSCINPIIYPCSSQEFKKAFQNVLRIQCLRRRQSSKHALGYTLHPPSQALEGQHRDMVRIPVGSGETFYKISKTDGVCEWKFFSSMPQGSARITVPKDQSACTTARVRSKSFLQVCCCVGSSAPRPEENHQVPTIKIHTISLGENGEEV

[3] = target: T2, 5-hydroxytryptamine receptor 1A (Rattus norvegicus, UniProt P19327); assay: In vitro ability to displace serotonin 5-HT1A receptor binding to rat cerebral cortex in competition experiments against [3H]8-(hydroxy)dipropyl aminotetralin at 1 mg/kg concentration
T2 sequence (P19327 whole entry): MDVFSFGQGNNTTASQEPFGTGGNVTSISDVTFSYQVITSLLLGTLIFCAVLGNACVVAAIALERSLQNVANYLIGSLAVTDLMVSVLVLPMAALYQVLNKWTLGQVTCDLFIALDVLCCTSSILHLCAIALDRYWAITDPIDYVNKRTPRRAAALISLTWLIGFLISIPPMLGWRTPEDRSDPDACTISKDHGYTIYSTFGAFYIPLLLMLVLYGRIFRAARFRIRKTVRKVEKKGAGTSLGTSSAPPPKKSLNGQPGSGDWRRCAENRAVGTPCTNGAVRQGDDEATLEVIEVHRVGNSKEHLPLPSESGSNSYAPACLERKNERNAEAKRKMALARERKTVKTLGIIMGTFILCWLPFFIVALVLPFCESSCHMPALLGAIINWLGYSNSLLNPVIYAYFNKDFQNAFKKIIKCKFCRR

D(2) dopamine receptor = D(2) dopamine receptor (Rattus norvegicus, UniProt P61169); assay: In vitro ability to displace Dopamine D2 receptor binding to rat striatal membranes in competition experiments against 3H-spiperone, expressed as Ki; set-up: species or system Striatum, Membrane
D(2) dopamine receptor, sequence (P61169 whole entry): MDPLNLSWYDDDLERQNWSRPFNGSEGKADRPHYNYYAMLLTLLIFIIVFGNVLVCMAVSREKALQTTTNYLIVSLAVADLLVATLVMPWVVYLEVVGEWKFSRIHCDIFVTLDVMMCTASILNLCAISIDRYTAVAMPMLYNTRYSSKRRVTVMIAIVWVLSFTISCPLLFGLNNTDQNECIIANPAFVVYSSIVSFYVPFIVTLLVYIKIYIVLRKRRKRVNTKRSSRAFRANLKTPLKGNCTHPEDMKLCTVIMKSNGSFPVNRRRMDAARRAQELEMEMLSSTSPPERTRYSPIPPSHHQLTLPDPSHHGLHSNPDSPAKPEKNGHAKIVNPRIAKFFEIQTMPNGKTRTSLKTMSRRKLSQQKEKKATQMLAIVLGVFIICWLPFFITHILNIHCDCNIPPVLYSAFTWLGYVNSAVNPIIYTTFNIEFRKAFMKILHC

Canis familiaris [4] = organism: Canis familiaris; assay: Percent of radioactive dose in urine and feces excreted by 0-24 hr in dogs; type: ADME, organism-based, Canis lupus familiaris; conditions: dog, in vivo
Rattus norvegicus [5] = assay: (§1) In vivo antipsychotic activity determined for dose ip by CAR (conditioned avoidance response) assay; type: functional; set-up: unit not given here
Rattus norvegicus [6] = organism: Rattus norvegicus; assay: Percent of radioactive dose in urine and faeces excreted in 0-24 hr by rats; type: ADME, organism-based, Urine/Feces; conditions: in vivo
Canis familiaris [7] = organism: Canis familiaris; assay: Percent of radioactive dose in urine and faeces excreted in 0-24 hr by dogs; type: ADME, organism-based, Canis lupus familiaris, Urine/Feces; conditions: dog, in vivo
Rattus norvegicus [8] = assay: as §1; type: functional
Canis familiaris [9] = organism: Canis familiaris; assay: Percent of radioactive dose in urine and feces excreted in 0-24 hr by dogs; NA is <10% inhibition at 1 uM for binding data; type: ADME, organism-based, Canis lupus familiaris; conditions: dog, in vivo
[10] = target: T1, Adrenergic receptor alpha-1; assay: In vitro ability to displace Alpha-1 adrenergic receptor binding to rat cerebral cortex in competition experiments against [3H]prazosin […], expressed as Ki.
Rattus norvegicus [11] = organism: Rattus norvegicus; assay: Percent of radioactive dose in urine and feces excreted in 0-24 hr by rats; NA is <10% inhibition at 1 uM for binding data; type: ADME, organism-based; conditions: in vivo
[12] = target: T2, 5-hydroxytryptamine receptor 1A; assay: In vitro ability to displace serotonin 5-HT1A receptor binding to rat cerebral cortex in competition experiments against [3H]8-(hydroxy)dipropyl aminotetralin at 15 mg/kg concentration
[13] = target: T3, 5-hydroxytryptamine receptor 1A (Rattus norvegicus) (UniProt P19327); assay: In vitro ability to displace serotonin 5-HT1A receptor binding to rat cerebral cortex in competition experiments against [3H]8-(hydroxy)dipropyl aminotetralin at 1 uM concentration; type: tissue-based
T3 sequence (whole entry): T2 sequence (P19327 whole entry)

[14] = target: Adrenergic receptor alpha-1 (Rattus norvegicus) (UniProt P15823+P23944+P43140); assay: In vitro ability to displace Alpha-1 adrenergic receptor binding to rat cerebral cortex in competition experiments against [3H]prazosin at 1 µM, expressed as % inhibition.
[15] = target: D(2) dopamine receptor (Rattus norvegicus) (UniProt P61169); assay: In vitro ability to displace Dopamine D2 receptor binding to rat striatal membranes in competition experiments against [3H]spiperone at 1 uM concentration; conditions: Striatum, Membrane
D(2) dopamine receptor (Rattus norvegicus), sequence (P61169 whole entry): as above

Canis familiaris [16] = organism: Canis familiaris; assay: Percent of radioactive dose in urine and feces excreted by 0-24 hr in dogs; NA is <10% inhibition at 1 uM for binding data; type: ADME, organism-based, Canis lupus familiaris; conditions: dog, in vivo

| Compound | Dose (Rattus norvegicus [1]) | Ki (D(2) dopamine receptor) | Dose (Canis familiaris [4]) | CAR (Rattus norvegicus [5]) | Ki [10] | Dose (Rattus norvegicus [11]) | Ki [12] | also measured |
| --- | --- | --- | --- | --- | --- | --- | --- | --- |
| CC(C)Oc1ccccc1N1CCN(Cc2cccc(C(=O)N3CCC(O)CC3)c2)CC1 | 3% | 11 nM | 3% | -76 |  |  |  | Ki [2]: 3.6 nM; Ki [3]: 7.8 nM |
| CC(C)Oc1ccccc1N1CCN(Cc2cccc(C(=O)N3CCCCC3)c2)CC1 [MAZAPERTINE] |  |  |  |  |  |  |  | Dose (Rattus norvegicus [6]): 4%; Dose (Canis familiaris [7]): 5%; CAR (Rattus norvegicus [8]): -92 |
| CC(C)Oc1ccccc1N1CCN(Cc2cccc(C(=O)N3CCCCC3O)c2)CC1 (stereo not given) |  | 9 nM |  | -64 | 4 nM | < 2% | 3 nM | Dose (Canis familiaris [9]): < 2% |
| CC(C)Oc1cc(O)ccc1N1CCN(Cc2cccc(C(=O)N3CCCCC3)c2)CC1 | 13% |  | 3% | -10 |  |  |  |  |
| O=C(O)c1cccc(C(=O)N2CCCCC2)c1 | 11% |  | 8% | -3 |  |  |  | inhibition [13]: < 10%; inhibition [14]: < 10%; inhibition [15]: < 10% |
| CC(C)Oc1ccccc1N1CCN(Cc2cccc(C(=O)N3CCCC(O)C3)c2)CC1 (stereo not given) |  | 8.8 nM |  | -96 | 21 nM | < 2% | 6.8 nM | Dose (Canis familiaris [16]): < 2% |
